Data as given in publication PMC12510174 (International Journal of Biological Sciences, 2025).

Tests used:
[1] = system: WERI-Rb1 orthotopic RB model; conditions: mouse, in vivo
retinoblastoma = conditions: human, in vivo; cited from earlier work
[2] = system: WERI-Rb1 orthotopic RB model; conditions: mouse, in vivo; remark: listed apart in the source
[3] = system: WERI-Rb1 orthotopic RB model; conditions: mouse, in vivo; remark: listed apart in the source
[4] = system: WERI-Rb1 orthotopic RB model; conditions: mouse, in vivo; remark: listed apart in the source
[5] = mouse, in vivo

SMILES | FITC-labeled Pri-MP uptake (Endocytosis species) alone or with added inhibitor (WERI-Rb1) [%] | FITC-labeled Pri-MP uptake (Endocytosis species) alone or with added inhibitor (Y79) [%] | reduction of Pri-MP uptake relative to vehicle controls (RB cells) [%] | other results
N[C@@H](Cc1ccc(N(CCCl)CCCl)cc1)C(=O)O [Melphalan] |  |  |  | decrease of Ki-67 expression relative to the control [1]: about 30.3%; overall globe salvage rate (retinoblastoma): 66.4%; reduction of tumor burden (tumor area) [2]: 82.6%; increase of p53 expression relative to the Control group [3]: 71%; TUNEL positivity relative to the Control group [4]: 1.77 fold; alanine aminotransferase and aspartate aminotransferase levels [5]: did not significantly deviate from the Control group; body weight during treatment [5]: no significant difference
N=C(N)NC(=O)c1nc(Cl)c(N)nc1N [amiloride] | 22.9 | 29.8 |  | inhibitory effect on Pri-MP uptake (WERI-Rb1): 73.0%; inhibitory effect on Pri-MP uptake (Y79): 64.5%
CN(C)CCCN1c2ccccc2Sc2ccc(Cl)cc21 [chlorpromazine] | 87.0 | 87.6 | < 10 | 
C=C1[C@@H](C)[C@H]2[C@H](Cc3ccccc3)NC(=O)[C@]23[C@H](OC(C)=O)/C=C/[C@@](C)(O)C(=O)[C@@H](C)C/C=C/[C@H]3[C@@H]1O [cytochalasin D] | 38.4 | 22.3 |  | inhibitory effect on Pri-MP uptake (WERI-Rb1): 55.4%; inhibitory effect on Pri-MP uptake (Y79): 72.4%
O=C(N/N=C/c1ccc(O)c(O)c1)c1cc2ccccc2cc1O [dynasore] | 70.1 | 73.8 | < 10 | 
CCCCC[C@@H](O)[C@H]1C(=O)O[C@H](C)[C@@H](O)/C=C/C=C/C=C/C=C/C=C(\C)[C@@H](O)C[C@H](O)C[C@H](O)C[C@H](O)C[C@H](O)C[C@H](O)C[C@@H]1O [filipin] | 84.8 | 78.6 | < 10 | 
O=c1c(-c2ccc(O)cc2)coc2cc(O)cc(O)c12 [genistein] | 87.0 | 85.2 |  | 
